From patent publication US11273163B2, “Antiviral treatment” (priority 2020, dated 2022)
Several values for one entry are separate records, joined by “and”; a condition that tells them apart may be missing. Identical values can stand only once. Like-named read-outs stand apart in the source and are kept apart here.

Columns and labels:
SARS-CoV-2 [1] = assay: microbe, parasite or virus in culture; format: cell-based; conditions: for reduction of viral particle numbers: up to; for viral particle/μL: 48 h post infection, median
SARS-CoV-2 B.1.351 = assay: microbe, parasite or virus in culture; format: cell-based; conditions: Severe acute respiratory syndrome coronavirus 2, Vero/TMPRSS2, 48 h, read-out: inhibition of infection (relative to no azelastine treated cells)
SARS-CoV-2 B.1.1.7 = assay: microbe, parasite or virus in culture; format: cell-based; conditions: Severe acute respiratory syndrome coronavirus 2, Vero/TMPRSS2, 48 h, B1.1.7, 48 h, read-out: inhibition of infection (relative to no azelastine treated cells)
[2] = system: reconstituted human nasal tissue (MucilAir); conditions: without virus infection
SARS-CoV-2 [3] = format: cell-based; conditions: for cytopathogenic score: Vero E6, MOI 0.1, 48 hours post infection
SARS-CoV-2 [4] = format: cell-based; conditions: Calu-3, MOI 0.01, 48 h
RSV Long strain [5] = format: cell-based, Respiratory Syncytial Virus; conditions: all 3 settings (preventive, co-administration, therapeutic), 48 h
RSV Long strain [6] = format: cell-based, Respiratory Syncytial Virus; conditions: 6.4 μM
HEp-2 cells = assay: Cytotoxicity towards HEp-2 cells, flow cytometry with propidium iodide; format: cell-based; conditions: non-infected, 48 h
Protocol: Mean and SEM were calculated from 3 independent experiments.

influenza H1N1 = format: cell-based, influenza A virus H1N1; conditions: hydrochloride

CN1CCCC(n2nc(Cc3ccc(Cl)cc3)c3ccccc3c2=O)CC1 (stereo not shown) [Azelastine, 4-[(4-chlorophenyl)methyl]-2-(1-methylazepan-4-yl)phthalazin-1-one]
EC50 (SARS-CoV-2 [1]; Severe acute respiratory syndrome coronavirus 2, Vero C1008, wild-type SARS-CoV-2, read-out: EC50 observed for the wild-type virus): ~6 µM
reduction of viral particle numbers (SARS-CoV-2 [1]; co-administration (simulating prevention)): > 99%
viral particle/μL (SARS-CoV-2 [1]; co-administration, 3.125 μM): 98.4 viral particle/μL
viral particle/μL (SARS-CoV-2 [1]; co-administration, 6.25 μM): 15.45 viral particle/μL
viral particle/μL (SARS-CoV-2 [1]; co-administration, 12.5 μM): 12.25 viral particle/μL
viral particle/μL (SARS-CoV-2 [1]; co-administration, 25 μM): 0.2 viral particle/μL
viral particle/μL (SARS-CoV-2 [1]; post-infection administration, 3.125 μM): 138 viral particle/μL
viral particle/μL (SARS-CoV-2 [1]; post-infection administration, 6.25 μM): 68.4 viral particle/μL
viral particle/μL (SARS-CoV-2 [1]; post-infection administration, 12.5 μM): 52 viral particle/μL
viral particle/μL (SARS-CoV-2 [1]; post-infection administration, 25 μM): 6.865 viral particle/μL
reduction of viral particle numbers (SARS-CoV-2 [1]; post-infection administration): > 97%
inhibition at 3.125 µM (SARS-CoV-2 B.1.351; preventive setting): 32.9%
inhibition at 6.25 µM (SARS-CoV-2 B.1.351; preventive setting): 74.9%
inhibition at 12.5 µM (SARS-CoV-2 B.1.351; preventive setting): 99.1%
inhibition at 3.125 µM (SARS-CoV-2 B.1.351; therapeutic setting): 22%
inhibition at 6.25 µM (SARS-CoV-2 B.1.351; therapeutic setting): 55%
inhibition at 12.5 µM (SARS-CoV-2 B.1.351; therapeutic setting): 97.6%
inhibition at 3.125 µM (SARS-CoV-2 B.1.1.7; preventive setting): 23.8%
inhibition at 6.25 µM (SARS-CoV-2 B.1.1.7; preventive setting): 72.8%
inhibition at 12.5 µM (SARS-CoV-2 B.1.1.7; preventive setting): 98.8%
inhibition at 3.125 µM (SARS-CoV-2 B.1.1.7; therapeutic setting): 2.57%
inhibition at 6.25 µM (SARS-CoV-2 B.1.1.7; therapeutic setting): 47.4%
inhibition at 12.5 µM (SARS-CoV-2 B.1.1.7; therapeutic setting): 91.7%
tissue morphology versus control [2]: No difference in tissue morphology

CN1CCCC(n2nc(Cc3ccc(Cl)cc3)c3ccccc3c2=O)CC1.Cl (stereo not shown) [Azelastine-HCl, 4-[(4-chlorophenyl)methyl]-2-(1-methylazepan-4-yl)phthalazin-1-one; hydrochloride]
cytopathogenic score (SARS-CoV-2 [3]; 3.125 μM): 2
cytopathogenic score (SARS-CoV-2 [3]; 6.25 μM): 2
reduction of viral particle numbers (SARS-CoV-2 [4]; 25 μM): over 90%
reduction of viral particle numbers (SARS-CoV-2 [4]; 50 μM, up to): > 99%
RSV infection of cells by spot count, compared to vehicle (DMSO) treated controls (RSV Long strain [5]; 3.2 μM): ~50%
RSV infection of cells by spot count, compared to vehicle (DMSO) treated controls (RSV Long strain [5]; 6.4 μM): ~50%
Ct (cycle threshold in PCR reaction) (RSV Long strain [6]; co-administration, experiment #1): 27.99
Ct (cycle threshold in PCR reaction) (RSV Long strain [6]; co-administration, experiment #2): 27.21
Ct (cycle threshold in PCR reaction) (RSV Long strain [6]; preventive, experiment #1): 27.5
Ct (cycle threshold in PCR reaction) (RSV Long strain [6]; preventive, experiment #2): 27.17
Ct (cycle threshold in PCR reaction) (RSV Long strain [6]; therapeutic, experiment #1): 27.95
Ct (cycle threshold in PCR reaction) (RSV Long strain [6]; therapeutic, experiment #2): 27.27
cytotoxicity to HEp-2 cells (HEp-2 cells; 12.8 μM): showed cytotoxicity
cytotoxicity to HEp-2 cells (HEp-2 cells; 25.6 μM): showed cytotoxicity
reduction in viral genome copy (influenza H1N1): 98.74% and 87.4%

Maraviroc
cytopathogenic score (SARS-CoV-2 [3]; 3.125 μM): 4
cytopathogenic score (SARS-CoV-2 [3]; 6.25 μM): 4
cytopathogenic score (SARS-CoV-2 [3]; 12.5 μM): 3
cytopathogenic score (SARS-CoV-2 [3]; 25 μM): 3
cytopathogenic score (SARS-CoV-2 [3]; 50 μM): 3
protective effect (SARS-CoV-2 [3]; higher concentrations (12.5 to 50 μM)): only marginal protective effect
protective effect (SARS-CoV-2 [3]; lower concentrations): not effective at all
